Test results from ChEMBL document CHEMBL1147764, “Leptostatin: a synthetic hybrid of the cytotoxic polyketides callystatin A and leptomycin B” (Bioorg Med Chem Lett, 2006).

The compounds below were run on HCT-116 (assay: Cytotoxicity against HCT116 human colon cancer cell line).
Type: functional, cell-based

| SMILES | IC50 [nM] |
| --- | --- |
| CCC(=C/[C@H](C)C/C=C/C(C)=C/[C@@H](C)C(=O)[C@@H](C)[C@H](O)[C@@H](C)CC)/C=C/[C@H]1OC(=O)C=C[C@H]1C | 0.2 |
| CCC(=C/[C@H](C)C/C=C/C(C)=C/[C@@H](C)C(=O)[C@@H](C)[C@H](O)[C@@H](C)CC)/C=C/[C@H]1OC(=O)C=C[C@@H]1C | 2 |
| CCC(=C/[C@H](C)C/C=C/C(C)=C/[C@@H](C)C(=O)[C@@H](C)[C@H](O)[C@@H](C)CC)/C=C/[C@@H]1OC(=O)C=C[C@@H]1C | 3 |
| CCC(=C/[C@H](C)C/C=C/C(C)=C/[C@@H](C)C(=O)[C@@H](C)[C@H](O)[C@@H](C)CC)/C=C/[C@@H]1OC(=O)C=C[C@H]1C | 30 |
| CCC(=C/[C@H](C)C/C=C/C(C)=C/[C@@H](C)C(=O)[C@@H](C)[C@H](O)[C@@H](C)CC)/C=C/[C@H]1CC=CC(=O)O1 [CALLYSTATIN A] | 0.03 |
